{"source": "patent US20210154190A1", "about": "“SHP2 INHIBITOR COMPOSITIONS AND METHODS FOR TREATING CANCER” (Revolution Medicines, Inc., priority 2018, published 2021)", "key": {"human SHP2-FL P491S": {"biological_target": "T1, human SHP2-FL P491S (Homo sapiens, UniProt Q06124, P491S)", "T1 sequence (Q06124 1-593 P491S)": "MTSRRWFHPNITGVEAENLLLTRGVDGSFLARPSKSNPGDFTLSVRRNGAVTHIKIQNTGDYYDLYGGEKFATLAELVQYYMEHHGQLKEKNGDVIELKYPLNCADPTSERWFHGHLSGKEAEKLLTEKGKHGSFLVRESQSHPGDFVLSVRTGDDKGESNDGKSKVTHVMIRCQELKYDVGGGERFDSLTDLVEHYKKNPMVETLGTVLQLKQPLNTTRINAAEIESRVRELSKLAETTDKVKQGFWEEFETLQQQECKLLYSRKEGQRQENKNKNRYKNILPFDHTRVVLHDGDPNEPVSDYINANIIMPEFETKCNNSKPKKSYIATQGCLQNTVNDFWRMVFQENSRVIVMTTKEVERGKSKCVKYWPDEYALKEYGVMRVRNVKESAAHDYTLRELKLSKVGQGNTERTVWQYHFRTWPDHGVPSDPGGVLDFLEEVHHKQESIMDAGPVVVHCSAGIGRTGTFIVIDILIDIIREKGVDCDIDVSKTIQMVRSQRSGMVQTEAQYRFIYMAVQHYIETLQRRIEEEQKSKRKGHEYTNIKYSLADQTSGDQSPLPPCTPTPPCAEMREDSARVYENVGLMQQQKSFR", "experiment": "SHP2 allosteric inhibition assay (DiFMUP), P491S", "assay_type": "biochemical", "protocol": "(§1) Full-length SHP2 is allosterically activated through binding of bis-tyrosyl-phorphorylated peptides to its Src Homology 2 (SH2) domains. The latter activation step leads to the release of the auto-inhibitory interface of SHP2, which in turn renders the SHP2 protein tyrosine phosphatase (PTP) active and available for substrate recognition and reaction catalysis. The catalytic activity of SHP2 was monitored using the surrogate substrate DiFMUP in a prompt fluorescence assay format.\n(§2) […] […] 50 μl stop solution (0.1 mM sodium pervanadate) was added to each well, the plate was shaken briefly to mix, and read in endpoint mode on a SpectraMax M5 plate reader (Molecular Devices) using excitation and emission wavelengths of 340 nm and 450 nm. Data was imported into GraphPad Prism. Plots of fluorescence intensity vs. log Molar [compound] were created and modeled with a 3-parameter sigmoidal concentration response equation in order to estimate IC50.\n(§3) Reactions were then allowed to proceed for 30 minutes and stopped by the addition of a phosphatase inhibitor, sodium pervanadate. De-phosphorylation of DiFMUP results in production of a fluorescent product. Product fluorescence was determined and plotted as a function of compound concentration in order to determine the IC50 for each compound on each mutant using a four parameter sigmoidal dose response function in Prism (GraphPad).\n(§4) NsCs mimics the role of the cytosolic domain of a protein tyrosine kinase in this model system."}, "human SHP2-FL S189A": {"biological_target": "T2, human SHP2-FL S189A (Homo sapiens, UniProt Q06124, S189A)", "T2 sequence (Q06124 1-593 S189A)": "T1 sequence (Q06124 1-593 P491S) with S189A, S491P", "experiment": "SHP2 allosteric inhibition assay (DiFMUP), S189A", "assay_type": "biochemical", "protocol": "as §1, §2, §3, §4"}, "SHP2 WT": {"biological_target": "T3, SHP2 WT (Homo sapiens, UniProt Q06124)", "T3 construct": "expressed in transfected cells; host or cells: Flp-In T-REx-293 (T-REx-293-SHP2)", "experiment": "EGF-induced pERK AlphaLISA in T-REx-293-SHP2 cells, WT", "assay_type": "cell-based", "conditions": "Variant WT", "protocol": "An experimental system was creating to test the activity of SHP2 mutants on an isogenic background (FIG. 6). The Flp-In T-REx-293 cell line was obtained from Gibco® and cultivated in high glucose DMEM™ containing 2 mM L-glutamine (Hyclone®), supplemented with 10% FBS (Hyclone®), 1% penicillin/streptomycin (Gibco®), 100 μg/mL Zeocin™ (Gibco®), and 15 μg/mL blasticidin (Gibco®) in a humidified cell culture incubator at 37° C., 5% CO2.\nWild type or mutant SHP2 variants were synthesized and subcloned into the pcDNA5/FRT/TO vector (ThermoFisher). Plasmids were co-transfected with the pOG44 Flp recombinase expression plasmid (ThermoFisher®) into Flp-In T-REx-293 cells using X-tremegene 9 DNA transfection reagent (Sigma®), according to the manufacturer's instructions. […]\nFor the final 5 minutes of drug treatment, cells were stimulated with 50 ng/mL Epidermal Growth Factor (Sigma®). […] Samples were read using an EnVision Multilabel Plate Reader (Perkin Elmer®) using standard AlphaLISA settings. Assay data was plotted and EC50 values were determined using four-parameter concentration-response model in GraphPad Prism 7. […]"}}, "note": "Substitutions are numbered along the chain they refer to. Several values for one entry are separate records, joined by “and”; a condition that tells them apart may be missing. Equal entries are not always repeated. Where two headings read alike, the source gives them in different places.", "data": [{"smiles": "Nc1nc(N2CCC3(CCC[C@H]3N)CC2)cnc1Sc1ccnc(Cl)c1Cl", "note": "[Compound 1]", "values": [{"measurement": "IC50", "setting": "human SHP2-FL P491S; IC50 (nM), SHP2 P491S 0.5 μM NsCs peptide (Activated), human SHP2-FL P491S, 0.5 μM NsCs peptide (activated)", "value": "> 10000 nM and 10600 nM and 7670 nM"}, {"measurement": "IC50", "setting": "human SHP2-FL P491S; human SHP2-FL P491S alone, no peptide (non-activated), read-out: IC50 (nM), SHP2 P491S No Peptide Control (Non-Activated)", "value": "258 nM and 274 nM and 253 nM and 282 nM"}, {"measurement": "IC50", "setting": "human SHP2-FL P491S; human SHP2-FL P491S alone, no peptide (non-activated), read-out: pIC50, SHP2 P491S No Peptide Control (Non-Activated) (converted)", "value": "257 nM and 275 nM and 251 nM and 282 nM"}, {"measurement": "IC50", "setting": "human SHP2-FL P491S; pIC50, SHP2 P491S 0.5 μM NsCs peptide (Activated), human SHP2-FL P491S, 0.5 μM NsCs peptide (activated)", "value": "> 10000 nM and 10700 nM and 7590 nM"}, {"measurement": "IC50", "setting": "human SHP2-FL S189A; IC50 (nM), SHP2 S189A 0.5 μM NsCs peptide (Activated), human SHP2-FL S189A, 0.5 μM NsCs peptide (activated)", "value": "3.38 nM and 3.76 nM and 2.99 nM and 3.79 nM"}, {"measurement": "IC50", "setting": "human SHP2-FL S189A; human SHP2-FL S189A alone, no peptide (non-activated), read-out: IC50 (nM), SHP2 S189A No Peptide Control (Non-Activated)", "value": "3.01 nM and 3.35 nM and 2.75 nM and 3.11 nM"}, {"measurement": "IC50", "setting": "human SHP2-FL S189A; human SHP2-FL S189A alone, no peptide (non-activated), read-out: pIC50, SHP2 S189A No Peptide Control (Non-Activated) (converted)", "value": "3.02 nM and 3.31 nM and 2.75 nM and 3.09 nM"}, {"measurement": "IC50", "setting": "human SHP2-FL S189A; pIC50, SHP2 S189A 0.5 μM NsCs peptide (Activated), human SHP2-FL S189A, 0.5 μM NsCs peptide (activated)", "value": "3.39 nM and 3.72 nM and 3.02 nM and 3.8 nM"}]}, {"smiles": "Cc1nc(N2CCC3(CC2)CO[C@@H](C)[C@H]3N)c(CO)nc1-c1cccc(Cl)c1Cl", "note": "[Compound B]", "values": [{"measurement": "Biochemical sensitivity", "setting": "human SHP2-FL P491S; Variant P491S", "value": "no (Sensitive if IC50 < 2000 nM)"}, {"measurement": "Biochemical sensitivity", "setting": "human SHP2-FL S189A; Variant S189A", "value": "yes (Sensitive if IC50 < 2000 nM)"}, {"measurement": "Cellular sensitivity", "setting": "SHP2 WT", "value": "yes (Sensitive if IC50 < 2000 nM)"}]}]}
